Active and inactive are the calls of the source. No cut-off for these calls is given here.
Columns and labels:
Bifora radians [1] = experiment: Herbicidal activity against ALS-inhibiting herbicide-resistant four to six-leaf stage Bifora radians infested wheat field at ED90 applied by spraying relative to ALS-inhibiting herbicide-sensitive Bifora radians; type: functional
Bifora radians [2] = experiment: Herbicidal activity against ALS-inhibiting herbicide-resistant six to eight-leaf stage Bifora radians infested wheat field at ED50 applied by spraying relative to ALS-inhibiting herbicide-sensitive Bifora radians; type: functional
Bifora radians [3] = experiment: Herbicidal activity against ALS-inhibiting herbicide-resistant two to four-leaf stage Bifora radians infested wheat field at ED90 applied by spraying relative to ALS-inhibiting herbicide-sensitive Bifora radians; type: functional
Bifora radians [4] = experiment: Herbicidal activity against ALS-inhibiting herbicide-resistant four to six-leaf stage Bifora radians infested wheat field at ED50 applied by spraying relative to ALS-inhibiting herbicide-sensitive Bifora radians; type: functional
Bifora radians [5] = experiment: Herbicidal activity against ALS-inhibiting herbicide-resistant two to four-leaf stage Bifora radians infested wheat field at ED50 applied by spraying relative to ALS-inhibiting herbicide-sensitive Bifora radians; type: functional
Bifora radians [6] = experiment: Herbicidal activity against ALS-inhibiting herbicide-resistant six to eight-leaf stage Bifora radians infested wheat field at 15 to 20 g/ha applied by spraying measured after 14 to 56 days post treatment; type: functional, organism-based
Bifora radians [7] = experiment: Herbicidal activity against ALS-inhibiting herbicide-resistant four to six-leaf stage Bifora radians infested wheat field at 15 to 20 g/ha applied by spraying measured after 14 to 56 days post treatment; type: functional, organism-based
Bifora radians [8] = experiment: Herbicidal activity against ALS-inhibiting herbicide-resistant two to four-leaf stage Bifora radians infested wheat field at 15 to 20 g/ha applied by spraying measured after 14 to 56 days post treatment; type: functional, organism-based
Bifora radians [9] = experiment: Herbicidal activity against ALS-inhibiting herbicide-resistant six to eight-leaf stage Bifora radians infested wheat field at ED90 applied by spraying relative to ALS-inhibiting herbicide-sensitive Bifora radians; type: functional

SMILES	Ratio (Bifora radians [1])	Ratio (Bifora radians [2])	Ratio (Bifora radians [3])	Ratio (Bifora radians [4])	Ratio (Bifora radians [5])	Activity (Bifora radians [6])	Activity (Bifora radians [7])	Activity (Bifora radians [8])	Ratio (Bifora radians [9])
COc1nc(C)nc(NC(=O)NS(=O)(=O)c2ccccc2Cl)n1 [CHLORSULFURON]	1.6	2.3	1.6	1.8	1.9	Active	Active	Active	2
COC(=O)c1ccccc1S(=O)(=O)NC(=O)N(C)c1nc(C)nc(OC)n1 [TRIBENURON METHYL]	1.9	2	1.8	1.8	1.7	–	–	–	2.4
